Several values for one entry are separate records, joined by “and”; a condition that tells them apart may be missing. Identical values can stand only once.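 Cultured in 96-well plates, cells were exposed to test compound for 48 hours across five concentrations. The concentration for 50% growth inhibition is given as GI50. Definition used: TGI = concentration required for complete inhibition of growth.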

Test systems include A549 NSCLC; CAKI-1 renal; HCC-2998 colon; HCT-15 colon; K-562 leukemia; KM12 colon; OVCAR-5 ovarian; RXF 393 renal; SF-295 CNS; SK-MEL-28 melanoma.
Common to all, as to experiment: NCI-60 cell line screen, 48 h

Regarding `CCCCCCCCCCCCCCCCOP(=O)([O-])OCC[N+](C)(C)C`, the GI50 in the experiment on A549 NSCLC was 1.6 µM; in the experiment on CAKI-1 renal, 0.931 µM; with HCC-2998 colon, 1.06 µM; in the experiment on HCT-15 colon, 0.842 µM; with KM12 colon, 0.341 µM; in the experiment with OVCAR-5 ovarian, 0.735 µM. Also, the results for the GI50 with RXF 393 renal and with SK-MEL-28 melanoma were 0.427 µM and 3.65 µM, respectively. Further, the TGI is 2.99 µM and 27.7 µM with CAKI-1 renal; 64.9 µM in the experiment on K-562 leukemia; 1.78 µM and 10.3 µM with KM12 colon; 4.04 µM and 24.9 µM in the experiment on OVCAR-5 ovarian; 53 µM in the experiment on SF-295 CNS; 14.2 µM and 58.5 µM in the experiment on SK-MEL-28 melanoma.
With `O=c1oc2cc(OC/C(=N/O)c3ccc(F)cc3)ccc2c2ccccc12`, the GI50 in the experiment on A549 NSCLC was 18.2 µM; in the experiment with CAKI-1 renal it was 13.1 µM; with HCC-2998 colon, 17 µM; with HCT-15 colon, 20.7 µM; in the experiment with K-562 leukemia it was 20.1 µM; in the experiment with KM12 colon, 21.2 µM. Moreover, the GI50 with OVCAR-5 ovarian is 19.4 µM; in the experiment with RXF 393 renal, 14.7 µM; with SF-295 CNS, 18.4 µM; with SK-MEL-28 melanoma, 20 µM. The TGI was found to be 45.7 µM with A549 NSCLC; 33.4 µM with CAKI-1 renal; 30.7 µM in the experiment on HCC-2998 colon; 42.4 µM in the experiment with HCT-15 colon; 46.3 µM in the experiment on K-562 leukemia; 53.5 µM in the experiment with KM12 colon. The TGI with OVCAR-5 ovarian worked out at 40 µM; in the experiment on RXF 393 renal, 32.5 µM; in the experiment with SF-295 CNS, 41.5 µM; in the experiment on SK-MEL-28 melanoma, 37.2 µM.
Consider `COc1cc(C(C)c2cc3c(cc2OCCNC(=O)COc2cc4c(cc2C(C)c2cc(OC)c(OC)c(OC)c2)OCO4)OCO3)cc(OC)c1OC` (centres undefined), for which the TGI in the experiment with A549 NSCLC, in the experiment with CAKI-1 renal, in the experiment with HCC-2998 colon, with HCT-15 colon, in the experiment on K-562 leukemia and with KM12 colon was > 100 µM each time. In addition, the TGI in the experiment with OVCAR-5 ovarian, in the experiment on RXF 393 renal, in the experiment on SF-295 CNS and in the experiment with SK-MEL-28 melanoma was > 100 µM in each case.
For `O=C(CI)Nc1ccc(O)c2ccccc12`, the GI50 is 3.56 µM in the experiment on A549 NSCLC; 0.69 µM with CAKI-1 renal; 2.13 µM in the experiment on HCC-2998 colon; 0.817 µM with HCT-15 colon; 0.328 µM in the experiment on K-562 leukemia; 1.9 µM with KM12 colon. In addition, the GI50 is 1.85 µM with OVCAR-5 ovarian, 0.742 µM in the experiment with RXF 393 renal, 3.38 µM in the experiment on SF-295 CNS and 1.78 µM in the experiment with SK-MEL-28 melanoma. In addition, the TGI in the experiment with A549 NSCLC was 13.7 µM; with CAKI-1 renal, 1.84 µM; in the experiment on HCC-2998 colon it was 4.91 µM; in the experiment on HCT-15 colon, 2.48 µM; in the experiment on K-562 leukemia it was > 100 µM; in the experiment with KM12 colon, 3.69 µM. Besides, the TGI in the experiment with OVCAR-5 ovarian was found to be 3.55 µM; in the experiment with RXF 393 renal, 1.97 µM; in the experiment with SF-295 CNS, 11.3 µM; with SK-MEL-28 melanoma, 3.74 µM.
`O=C(Nc1ccccc1-c1nn(CN2CCNCC2)c(=S)n(CN2CCNCC2)c1=O)C(F)(F)F`: the TGI with A549 NSCLC turned out to be 52.4 µM; with CAKI-1 renal, 55.2 µM; in the experiment on HCC-2998 colon, 33.4 µM; in the experiment on HCT-15 colon, 31.6 µM; in the experiment on K-562 leukemia, 59 µM; in the experiment on KM12 colon, 40.7 µM. Besides, the TGI in the experiment with OVCAR-5 ovarian amounted to 45 µM; in the experiment on RXF 393 renal, 30.3 µM; with SF-295 CNS, 76.5 µM; in the experiment on SK-MEL-28 melanoma, 33.2 µM.
For `Cc1ccc(S(=O)(=O)c2ccc(C)cc2[N+](=O)[O-])cc1`, the TGI in the experiment with A549 NSCLC, in the experiment with CAKI-1 renal, with HCC-2998 colon, with HCT-15 colon, in the experiment with K-562 leukemia and in the experiment with KM12 colon was > 100 µM each time. The TGI with OVCAR-5 ovarian, in the experiment on RXF 393 renal, in the experiment on SF-295 CNS and in the experiment on SK-MEL-28 melanoma was > 100 µM throughout.
`Cc1[nH]c(N)nc(=S)c1CCC(=O)O`: the TGI in the experiment on A549 NSCLC, in the experiment with CAKI-1 renal, in the experiment with HCC-2998 colon, in the experiment with HCT-15 colon, with K-562 leukemia and in the experiment on KM12 colon was > 100 µM in each case. Besides, the TGI in the experiment on OVCAR-5 ovarian, in the experiment with RXF 393 renal, in the experiment on SF-295 CNS and with SK-MEL-28 melanoma was > 100 µM each time.
For `CCn1c2c(c3ccccc31)[C@@H](c1ccc(Cl)cc1)CC1C(=O)N(c3ccccc3)C(=O)C21` (some centres undefined), the TGI in the experiment with A549 NSCLC, with CAKI-1 renal, with HCC-2998 colon, in the experiment on HCT-15 colon, in the experiment with K-562 leukemia and in the experiment on KM12 colon was > 100 µM throughout. The TGI with OVCAR-5 ovarian, in the experiment with RXF 393 renal, with SF-295 CNS and with SK-MEL-28 melanoma was > 100 µM in each case.
As to `C1CN(P2(N3CC3)=NP(N3CC3)(N3CC3)=NP(N3CC3)(N3CC3)=N2)CCO1` (centres undefined), the TGI with A549 NSCLC, in the experiment on CAKI-1 renal, with HCC-2998 colon, in the experiment with HCT-15 colon, in the experiment with K-562 leukemia and in the experiment with KM12 colon was > 100 µM throughout. In addition, the TGI in the experiment on OVCAR-5 ovarian, in the experiment on RXF 393 renal, in the experiment with SF-295 CNS and in the experiment on SK-MEL-28 melanoma was > 100 µM in each case.
Consider `Cn1c(-c2ccccc2)c(/C=C/C2=[N+](C)c3ccccc3C2(C)C)c2ccccc21`, for which the GI50 in the experiment on A549 NSCLC is 1.73 µM; in the experiment with CAKI-1 renal it was 1.81 µM; in the experiment with HCC-2998 colon it was 0.365 µM; in the experiment on HCT-15 colon, 3.92 µM; in the experiment with K-562 leukemia it was 0.128 µM; in the experiment with KM12 colon it was 0.429 µM. The GI50 in the experiment on OVCAR-5 ovarian is 3.96 µM; in the experiment on RXF 393 renal, 2.55 µM; in the experiment on SF-295 CNS it was 0.775 µM; in the experiment with SK-MEL-28 melanoma it was 1.19 µM. For the same molecule, the TGI in the experiment on A549 NSCLC amounted to 12.8 µM; with CAKI-1 renal, 5.08 µM; in the experiment on HCC-2998 colon, 3.42 µM; in the experiment on HCT-15 colon, 22.1 µM; in the experiment with K-562 leukemia, 5.3 µM; in the experiment with KM12 colon, 1.94 µM. The TGI was found to be 20 µM in the experiment with OVCAR-5 ovarian, 12.6 µM in the experiment on RXF 393 renal, 3.73 µM in the experiment on SF-295 CNS and 11.8 µM in the experiment with SK-MEL-28 melanoma.

Source of the values: PubChem BioAssay (NCI).
